Laboratory results as given in US4452812A, “Organic complex of platinum, its preparation and its use for treating malignant tumors” (Sanofi, priority 1980, dated 1984).
“Also recorded” adds a separate entry of the source.

Columns and labels:
leukemia L 1210 [1] = test: Anti-tumour activity, leukemia L 1210, s.c. graft, i.p. treatment; format: in vivo, mouse; settings: s.c. graft 10^6 cells
Method: (§1) I. […] L 1210: Ascite and Solid
(c) s.c. graft--i.p. treatment
10^6 cells were grafted under the skin behind the head on D0 and intraperitoneal treatment was carried out in one single injection either on D1 or on D4.
(§2) The solutions of these compounds were prepared extemporaneously.

leukemia L 1210 [2] = test: Anti-tumour activity, leukemia L 1210, i.p. graft, i.v. treatment; format: in vivo, mouse; settings: for ILS: i.p. graft 10^5 cells
Method: as §1
(b) i.p. graft--i.v. treatment
as §2

mouse = test: Acute toxicity in the mouse; format: in vivo, mouse (Swiss female); settings: for loss of weight on the 4th day: i.p.
Method: Acute toxicity, one single injection of the compound, was measured using Swiss female mice (Evic-Ceba, Bordeaux) of 21 to 23 g. and Sprague-Dawley rats. Ten animals were treated for each dose studied.

[3] = system: renal and hepatic parenchyma; test: Renal and hepatic toxicity; format: in vivo, mouse (Swiss female)
Method: It was thus of interest to compare the effects of the novel compound of the invention with those of the already known compounds listed above on the kidney and the liver, i.e. the organs in which the greatest amount of platinum accumulates.
Swiss female mice (Evic-Ceba, Bordeaux) of 20 to 22 g were treated by intraperitoneal route D0 and then sacrificed on D1, D4 and D10.
Slices 5 microns thick were coloured with hemalun eosine stain.

L 1210 cells = test: Cellular penetration of platinum in vivo into L 1210 cells; parameters: species or system mouse (DBA/2); settings: PHIC 150 mg/kg, two hours after treatment on D3
Method: DBA/2 mice received 10^6 L 1210 cells on D0 and were treated three days later with an amount of platinum compound equal to the LD0 in the healthy mouse. Two hours after treatment on D3, the animals were sacrificed. About 20.10^6 cells were extracted from the peritoneum and washed several times so as to eliminate the extra-cellular platinum and also any intracellular platinum which was not bound in a covalent manner with the cellular organelles. Platinum was monitored by atomic absorption for whole cells and also on the DNA which was purified by phenol extraction. […] This corresponds to 180.10^-16 g of platinum per leukemic cell. Under these conditions, one fixed platinum atom per 3000 nucleotides was found, i.e. a total of 1% of the amount which penetrated the cells was complexed to DNA. […] 10^-16 of platinum per cell.

abdominal viscera = test: Peritonitis (adhesion and hardening of abdominal viscera); format: in vivo, mouse
Method: as §2
As discussed above this problem seems to be linked to the presence of the 1,2-diaminocyclohexane ligand.

[4] = Stability in sodium chloride solution; format: physicochemical; settings: 9% sodium chloride
Method: This compound has an exceptionally high degree of solubility.
as §2

**Q.** For NC1CCCCC1N.O=C([O-])CC(C(=O)[O-])C([O-])C(=O)[O-].[H+].[H+].[Pt+2] (stereo not drawn) [PHIC, cis-isocitrato (1,2-diaminocyclohexane) platinum (II)], which ILS (leukemia L 1210 [1]; 62.5 mg/kg i.p. on D1) is on record?
**A.** 26%

**Q.** And the ILS (leukemia L 1210 [1]; 62.5 mg/kg i.p. on D4)?
**A.** 17%

**Q.** What about the ILS (leukemia L 1210 [1]; 125 mg/kg i.p. on D4) of the same molecule?
**A.** 50%

**Q.** And the “anti-tumour activity (in words)” value (leukemia L 1210 [2]; graft intraperitoneal, treatment intravenous)?
**A.** active

**Q.** And the ILS (leukemia L 1210 [2]; 50 mg/kg i.v. on D1)?
**A.** 25%

**Q.** And the ILS (leukemia L 1210 [2]; 125 mg/kg i.v. on D1)?
**A.** 41%

**Q.** And the “loss of weight on the 4th day” value (mouse; LD10 dose)?
**A.** 3.5 g

**Q.** What about the “loss of weight on the 4th day” value (mouse; LD50 dose) of the same molecule?
**A.** 4.3 g

**Q.** What about the “toxicity (in words)” value (mouse; mice) of the same molecule?
**A.** Extremely low toxicity

**Q.** What about the LD10 (mouse; mouse, I.P.) of the same molecule?
**A.** 135 mg/kg

**Q.** And the LD50 (mouse; mouse, I.P.)?
**A.** 236 mg/kg

**Q.** And the LD90 (mouse; mouse, I.P.)?
**A.** 365 mg/kg

**Q.** What about the LD10 (mouse; mouse, I.V.) of the same molecule?
**A.** 348 mg/kg

**Q.** What about the LD50 (mouse; mouse, I.V.) of the same molecule?
**A.** 421 mg/kg

**Q.** What about the LD90 (mouse; mouse, I.V.) of the same molecule?
**A.** 489 mg/kg

**Q.** And the LD50 (mouse; mouse, P.O.)?
**A.** > 1 000 mg/Kg

**Q.** What about the “LD10 (dose killing 10% of the animals)” value (mouse; mouse, one single injection, Table V) of the same molecule?
**A.** 153 mg/kg

**Q.** And the nephrotoxicity ([3]; LD0 level, mice)?
**A.** No

**Q.** And the renal lesion ([3]; at a dose 20 times greater than that of PDD)?
**A.** does not cause any renal lesion

**Q.** And the “renal and hepatic alterations” value ([3]; i.p. at ~LD0 (mg/kg): PDD 8, PAC 100, PHM 50, PHD 4, PHS 5, PHC 120, PHIC 150, D1, D4, D10)?
**A.** did not provoke any significant alterations

**Q.** What about the “Amount of penetrating platinum per cell” value (L 1210 cells; PDD 9 mg/kg) of the same molecule?
**A.** 7e-14 g

**Q.** And the “platinum per cell” value (L 1210 cells)?
**A.** 700. 10^-16

**Q.** What about the peritonitis (abdominal viscera; healthy mice, i.p. injection) of the same molecule?
**A.** also observed in healthy mice

**Q.** And the “occurrence of peritonitis in relation to the 1,2-diaminocyclohexane ligand” value (abdominal viscera; i.p.)?
**A.** seems to be correlated with the presence of 1,2-diaminocyclohexane

**Q.** And the “peritonitis / long-term toxic effect” value (abdominal viscera; i.v. administration)?
**A.** never encountered; also recorded: not observed

**Q.** What about the peritonitis (abdominal viscera; tumour-bearing mice, i.p. treatment) of the same molecule?
**A.** most of the mice reaching 30 days of survival treatment with PHM and PHIC developed peritonitis; also recorded: causes peritonitis

**Q.** And the “change to chlorinated derivative in sodium chloride solution” value [4]?
**A.** changing in 24 hours to a yellow chlorinated derivative which precipitates
